Columns and labels:
Format in all cases: cell-based
h[α6R3Q/α3]β4 = target: T1, h[α6R3Q/α3]β4 (Homo sapiens, UniProt P30926+P32297+Q15825, R36Q); assay: Electrophysiological assay, ACh concentration-response (Xenopus oocytes); details: ACh on h[α6R3Q/α3]β4
T1 construct: formed by splicing the N-terminal extracellular domain of the α6 subunit with the α3 subunit; human nAChR α3 subunit (CHRNA3); expressed in transfected cells; host or cells: Xenopus laevis oocytes injected with cRNA (plasmids from the University of Utah)
T1 sequence (Q15825+P32297 fused with the stated changes): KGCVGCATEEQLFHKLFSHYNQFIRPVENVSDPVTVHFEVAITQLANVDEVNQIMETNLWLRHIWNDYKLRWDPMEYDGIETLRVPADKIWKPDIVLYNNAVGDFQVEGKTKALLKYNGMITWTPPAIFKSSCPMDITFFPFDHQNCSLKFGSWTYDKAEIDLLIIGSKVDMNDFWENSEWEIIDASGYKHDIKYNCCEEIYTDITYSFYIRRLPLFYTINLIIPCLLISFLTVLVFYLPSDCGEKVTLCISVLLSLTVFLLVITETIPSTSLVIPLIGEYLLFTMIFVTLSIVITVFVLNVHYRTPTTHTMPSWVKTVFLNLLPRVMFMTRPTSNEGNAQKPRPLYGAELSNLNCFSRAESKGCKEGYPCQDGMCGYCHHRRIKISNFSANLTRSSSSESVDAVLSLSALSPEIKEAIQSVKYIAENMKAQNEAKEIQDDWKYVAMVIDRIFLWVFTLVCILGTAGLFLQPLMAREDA
T1 sequence (P30926 22-498): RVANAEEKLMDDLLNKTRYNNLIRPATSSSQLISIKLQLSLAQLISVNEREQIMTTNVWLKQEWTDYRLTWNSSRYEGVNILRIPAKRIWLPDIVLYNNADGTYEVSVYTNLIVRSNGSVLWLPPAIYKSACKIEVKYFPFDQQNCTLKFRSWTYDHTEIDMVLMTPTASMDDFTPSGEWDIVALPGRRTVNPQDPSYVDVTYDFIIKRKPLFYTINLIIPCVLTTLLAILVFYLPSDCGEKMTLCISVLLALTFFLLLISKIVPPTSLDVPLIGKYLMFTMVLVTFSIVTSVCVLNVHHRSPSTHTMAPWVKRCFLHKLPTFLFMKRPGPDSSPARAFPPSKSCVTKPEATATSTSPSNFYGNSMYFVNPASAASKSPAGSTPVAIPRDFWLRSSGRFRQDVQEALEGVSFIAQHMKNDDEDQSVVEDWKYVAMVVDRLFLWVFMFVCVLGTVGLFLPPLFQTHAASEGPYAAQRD

h[α6K7T/α3]β4 = target: T2, h[α6K7T/α3]β4 (Homo sapiens, UniProt P30926+P32297+Q15825, K40T); assay: as above; details: ACh on h[α6K7T/α3]β4
T2 construct: formed by splicing the N-terminal extracellular domain of the α6 subunit with the α3 subunit; human nAChR α3 subunit (CHRNA3); expressed in transfected cells; host or cells: Xenopus laevis oocytes injected with cRNA (plasmids from the University of Utah)

h[α6S10A/α3]β4 = target: T3, h[α6S10A/α3]β4 (Homo sapiens, UniProt P30926+P32297+Q15825, S43A); details: ACh on h[α6S10A/α3]β4
T3 construct: formed by splicing the N-terminal extracellular domain of the α6 subunit with the α3 subunit; human nAChR α3 subunit (CHRNA3); expressed in transfected cells; host or cells: Xenopus laevis oocytes injected with cRNA (plasmids from the University of Utah)

h[α6Q14R/α3]β4 = target: T4, h[α6Q14R/α3]β4 (Homo sapiens, UniProt P30926+P32297+Q15825, Q47R); details: ACh on h[α6Q14R/α3]β4
T4 construct: formed by splicing the N-terminal extracellular domain of the α6 subunit with the α3 subunit; human nAChR α3 subunit (CHRNA3); expressed in transfected cells; host or cells: Xenopus laevis oocytes injected with cRNA (plasmids from the University of Utah)

h[α6V32L/α3]β4 = target: T5, h[α6V32L/α3]β4 (Homo sapiens, UniProt P30926+P32297+Q15825, V65L); details: ACh on h[α6V32L/α3]β4
T5 construct: formed by splicing the N-terminal extracellular domain of the α6 subunit with the α3 subunit; human nAChR α3 subunit (CHRNA3); expressed in transfected cells; host or cells: Xenopus laevis oocytes injected with cRNA (plasmids from the University of Utah)
T5 sequence (Q15825+P32297 fused with the stated changes): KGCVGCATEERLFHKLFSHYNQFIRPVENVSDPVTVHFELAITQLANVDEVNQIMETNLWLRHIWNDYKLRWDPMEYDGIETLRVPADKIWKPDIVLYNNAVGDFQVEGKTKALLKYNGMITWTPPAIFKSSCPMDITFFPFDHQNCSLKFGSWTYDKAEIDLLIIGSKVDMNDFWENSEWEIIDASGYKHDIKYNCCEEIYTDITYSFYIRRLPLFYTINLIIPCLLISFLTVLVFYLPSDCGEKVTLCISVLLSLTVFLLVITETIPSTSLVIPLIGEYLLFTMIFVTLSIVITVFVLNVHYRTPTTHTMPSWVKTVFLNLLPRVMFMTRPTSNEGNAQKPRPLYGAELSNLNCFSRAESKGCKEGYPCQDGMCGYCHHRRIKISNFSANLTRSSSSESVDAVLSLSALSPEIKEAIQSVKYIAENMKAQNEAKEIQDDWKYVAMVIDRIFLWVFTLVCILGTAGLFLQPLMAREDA
T5 sequence (P30926 22-498): as the sequence (P30926 22-498) above

h[α6N58K/α3]β4 = target: T6, h[α6N58K/α3]β4 (Homo sapiens, UniProt P30926+P32297+Q15825, N91K); assay: Electrophysiological assay, ACh concentration-response (Xenopus oocytes); details: ACh on h[α6N58K/α3]β4
T6 construct: formed by splicing the N-terminal extracellular domain of the α6 subunit with the α3 subunit; human nAChR α3 subunit (CHRNA3); expressed in transfected cells; host or cells: Xenopus laevis oocytes injected with cRNA (plasmids from the University of Utah)

h[α6K61R/α3]β4 = target: T7, h[α6K61R/α3]β4 (Homo sapiens, UniProt P30926+P32297+Q15825, K94R); assay: as above; details: ACh on h[α6K61R/α3]β4
T7 construct: formed by splicing the N-terminal extracellular domain of the α6 subunit with the α3 subunit; human nAChR α3 subunit (CHRNA3); expressed in transfected cells; host or cells: Xenopus laevis oocytes injected with cRNA (plasmids from the University of Utah)

h[α6R63C/α3]β4 = target: T8, h[α6R63C/α3]β4 (Homo sapiens, UniProt P30926+P32297+Q15825, R96C); details: ACh on h[α6R63C/α3]β4
T8 construct: formed by splicing the N-terminal extracellular domain of the α6 subunit with the α3 subunit; human nAChR α3 subunit (CHRNA3); expressed in transfected cells; host or cells: Xenopus laevis oocytes injected with cRNA (plasmids from the University of Utah)

h[α6M67T/α3]β4 = target: T9, h[α6M67T/α3]β4 (Homo sapiens, UniProt P30926+P32297+Q15825, M100T); details: ACh on h[α6M67T/α3]β4
T9 construct: formed by splicing the N-terminal extracellular domain of the α6 subunit with the α3 subunit; fusion partner: remainder of the human α3 subunit (CHRNA3); expressed in transfected cells; host or cells: Xenopus laevis oocytes injected with cRNA

h[α6K81N/α3]β4 = target: T10, h[α6K81N/α3]β4 (Homo sapiens, UniProt P30926+P32297+Q15825, K114N); details: ACh on h[α6K81N/α3]β4
T10 construct: formed by splicing the N-terminal extracellular domain of the α6 subunit with the α3 subunit; fusion partner: remainder of the human α3 subunit (CHRNA3); expressed in transfected cells; host or cells: Xenopus laevis oocytes injected with cRNA
T10 sequence (Q15825+P32297 fused with the stated changes): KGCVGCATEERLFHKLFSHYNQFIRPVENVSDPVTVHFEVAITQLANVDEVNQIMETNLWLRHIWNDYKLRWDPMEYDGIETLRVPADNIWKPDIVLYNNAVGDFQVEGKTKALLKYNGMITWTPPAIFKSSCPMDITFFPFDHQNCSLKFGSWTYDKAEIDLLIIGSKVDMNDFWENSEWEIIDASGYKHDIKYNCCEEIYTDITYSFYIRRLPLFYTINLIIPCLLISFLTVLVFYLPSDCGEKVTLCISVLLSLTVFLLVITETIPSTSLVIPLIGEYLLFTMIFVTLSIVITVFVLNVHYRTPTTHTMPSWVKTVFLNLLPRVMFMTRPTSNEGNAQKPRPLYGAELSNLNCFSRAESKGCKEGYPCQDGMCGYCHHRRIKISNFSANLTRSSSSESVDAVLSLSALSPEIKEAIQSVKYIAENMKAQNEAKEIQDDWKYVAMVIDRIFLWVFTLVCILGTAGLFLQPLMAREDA
T10 sequence (P30926 22-498): as the sequence (P30926 22-498) above

h[α6N110D/α3]β4 = target: T11, h[α6N110D/α3]β4 (Homo sapiens, UniProt P30926+P32297+Q15825, N143D); assay: Electrophysiological assay, ACh concentration-response (Xenopus oocytes); details: ACh on h[α6N110D/α3]β4
T11 construct: formed by splicing the N-terminal extracellular domain of the α6 subunit with the α3 subunit; fusion partner: remainder of the human α3 subunit (CHRNA3); expressed in transfected cells; host or cells: Xenopus laevis oocytes injected with cRNA

h[α6M112V/α3]β4 = target: T12, h[α6M112V/α3]β4 (Homo sapiens, UniProt P30926+P32297+Q15825, M145V); details: ACh on h[α6M112V/α3]β4
T12 construct: formed by splicing the N-terminal extracellular domain of the α6 subunit with the α3 subunit; fusion partner: remainder of the human α3 subunit (CHRNA3); expressed in transfected cells; host or cells: Xenopus laevis oocytes injected with cRNA
T12 sequence (Q15825+P32297 fused with the stated changes): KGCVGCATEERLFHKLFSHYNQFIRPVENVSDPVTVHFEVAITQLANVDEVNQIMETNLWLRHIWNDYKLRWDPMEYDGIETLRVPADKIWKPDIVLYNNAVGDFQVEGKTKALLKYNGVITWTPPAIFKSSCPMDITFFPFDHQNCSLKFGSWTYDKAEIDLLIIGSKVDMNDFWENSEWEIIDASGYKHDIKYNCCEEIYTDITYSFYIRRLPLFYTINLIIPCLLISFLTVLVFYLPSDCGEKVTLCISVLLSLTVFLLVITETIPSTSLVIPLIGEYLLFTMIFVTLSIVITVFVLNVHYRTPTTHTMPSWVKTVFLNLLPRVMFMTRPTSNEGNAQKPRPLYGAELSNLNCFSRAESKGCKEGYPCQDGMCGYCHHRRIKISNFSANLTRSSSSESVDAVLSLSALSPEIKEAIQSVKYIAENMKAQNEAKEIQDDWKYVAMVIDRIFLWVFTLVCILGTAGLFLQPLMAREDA
T12 sequence (P30926 22-498): as the sequence (P30926 22-498) above

h[α6I176V/α3]β4 = target: T13, h[α6I176V/α3]β4 (Homo sapiens, UniProt P30926+P32297+Q15825, I209V); assay: Electrophysiological assay, ACh concentration-response (Xenopus oocytes); details: ACh on h[α6I176V/α3]β4
T13 construct: formed by splicing the N-terminal extracellular domain of the α6 subunit with the α3 subunit; fusion partner: remainder of the human α3 subunit (CHRNA3); expressed in transfected cells; host or cells: Xenopus laevis oocytes injected with cRNA
T13 sequence (Q15825+P32297 fused with the stated changes): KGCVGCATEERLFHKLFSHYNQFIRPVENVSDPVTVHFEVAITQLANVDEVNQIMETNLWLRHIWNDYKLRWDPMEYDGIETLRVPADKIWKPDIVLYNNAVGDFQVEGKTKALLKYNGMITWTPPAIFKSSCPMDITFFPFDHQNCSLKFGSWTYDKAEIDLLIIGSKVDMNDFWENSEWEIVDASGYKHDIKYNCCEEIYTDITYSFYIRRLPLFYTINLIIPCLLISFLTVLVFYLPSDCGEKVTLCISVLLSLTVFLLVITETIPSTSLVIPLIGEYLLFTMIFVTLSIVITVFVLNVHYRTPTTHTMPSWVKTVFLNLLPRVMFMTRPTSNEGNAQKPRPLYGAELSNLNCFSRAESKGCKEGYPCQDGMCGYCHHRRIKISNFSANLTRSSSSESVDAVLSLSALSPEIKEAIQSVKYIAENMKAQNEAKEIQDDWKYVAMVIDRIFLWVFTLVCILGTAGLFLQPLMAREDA
T13 sequence (P30926 22-498): as the sequence (P30926 22-498) above

h[α6V32L, K61R/α3]β4 = target: T14, h[α6V32L, K61R/α3]β4 (Homo sapiens, UniProt P30926+P32297+Q15825, K94R/V65L); details: ACh on h[α6V32L
T14 construct: formed by splicing the N-terminal extracellular domain of the α6 subunit with the α3 subunit; fusion partner: remainder of the human α3 subunit (CHRNA3); expressed in transfected cells; host or cells: Xenopus laevis oocytes injected with cRNA

[1] = target: T15, h[α6V32L, K61R/α3]β4L107V,V115I (Homo sapiens, UniProt P30926+P32297+Q15825, K94R/L133V/V141I/V65L); details: ACh on h[α6V32L
T15 construct: formed by splicing the N-terminal extracellular domain of the α6 subunit with the α3 subunit; fusion partner: remainder of the human α3 subunit (CHRNA3); expressed in transfected cells; host or cells: Xenopus laevis oocytes injected with cRNA

CC(=O)OCC[N+](C)(C)C [ACh, acetylcholine chloride]
Hill Slope (h[α6R3Q/α3]β4): 1.4 (1.2–1.8)
Hill Slope (h[α6K7T/α3]β4): 1.5 (1.1–1.9)
Hill Slope (h[α6S10A/α3]β4): 1.6 (1.2–2.3)
Hill Slope (h[α6Q14R/α3]β4): 1.4 (1.2–1.6)
Hill Slope (h[α6V32L/α3]β4): 1.5 (1.3–1.9)
Hill Slope (h[α6N58K/α3]β4): 1.4 (1.2–1.7)
Hill Slope (h[α6K61R/α3]β4): 1.4 (1.2–1.7)
Hill Slope (h[α6R63C/α3]β4): 1.5 (1.2–1.8)
Hill Slope (h[α6M67T/α3]β4): 1.4 (0.9–2.2)
Hill Slope (h[α6K81N/α3]β4): 1.4 (1.3–1.7)
Hill Slope (h[α6N110D/α3]β4): 1.2 (0.9–1.6)
Hill Slope (h[α6M112V/α3]β4): 1.4 (1.1–1.8)
Hill Slope (h[α6I176V/α3]β4): 1.7 (1.4–2.1)
Hill Slope (h[α6V32L, K61R/α3]β4): 1.2 (1.1–1.3)
Hill Slope [1]: 1.2 (1.0–1.5)
